# Measured values: PubChem BioAssay AID248 (DTP/NCI, 2004)
# Where “and” joins values, the source holds several entries; their conditions need not be identical. Equal values may be shown once. Inconclusive results and toxic doses are left out.
# Test system: L1210 leukemia ip in BDF1 mice, survival T/C
# Assay: NCI In Vivo Anticancer Drug Screen. Data for tumor model L1210 Leukemia (intraperitoneal) in B6D2F1 (BDF1) mice
# Conditions: endpoint: mean survival time, higher = longer survival
# How it was run: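 Transplantable tumor model; survival measured in treated vs vehicle control mice. Value = treated/control.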
# [1] = dose: 75.0 mg/kg/injection, schedule: Q01DX001 (ip), vehicle: saline
# [2] = dose: 150.0 mg/kg/injection, schedule: Q01DX001 (ip), vehicle: saline
# [3] = dose: 300.0 mg/kg/injection, schedule: Q01DX001 (ip), vehicle: saline
# [4] = dose: 100.0 mg/kg/injection, schedule: Q01DX009 (ip), vehicle: Klucel (hydroxypropylcellulose) (HPC)
# [5] = dose: 100.0 mg/kg/injection, schedule: Q04DX003 (ip), vehicle: Klucel (hydroxypropylcellulose) (HPC)
# [6] = dose: 200.0 mg/kg/injection, schedule: Q01DX009 (ip), vehicle: Klucel (hydroxypropylcellulose) (HPC)
# [7] = dose: 200.0 mg/kg/injection, schedule: Q04DX003 (ip), vehicle: Klucel (hydroxypropylcellulose) (HPC)
# [8] = dose: 400.0 mg/kg/injection, schedule: Q04DX003 (ip), vehicle: Klucel (hydroxypropylcellulose) (HPC)
# [9] = dose: 100.0 mg/kg/injection, schedule: Q01DX009 (ip), vehicle: saline
# [10] = dose: 200.0 mg/kg/injection, schedule: Q01DX009 (ip), vehicle: saline
# [11] = dose: 100.0 mg/kg/injection, schedule: Q01DX001 (ip), vehicle: other
# [12] = dose: 200.0 mg/kg/injection, schedule: Q01DX001 (ip), vehicle: other
# [13] = dose: 400.0 mg/kg/injection, schedule: Q01DX001 (ip), vehicle: other
# [14] = dose: 100.0 mg/kg/injection, schedule: Q01DX009 (ip), vehicle: saline with Tween-80
# [15] = dose: 200.0 mg/kg/injection, schedule: Q01DX009 (ip), vehicle: saline with Tween-80
structure (smiles),measurement,setting,value
Cc1cc(C(=O)O)c(CN2C(=O)c3ccccc3C2=O)c(=O)n1C,T/C,"dose: 100.0 mg/kg/injection, schedule: Q01DX001 (ip), vehicle: saline with Tween-80",105 % of control
same,T/C,"dose: 100.0 mg/kg/injection, schedule: Q04DX003 (ip), vehicle: water",102 % of control
same,T/C,"dose: 200.0 mg/kg/injection, schedule: Q01DX001 (ip), vehicle: saline with Tween-80",100 % of control
same,T/C,"dose: 200.0 mg/kg/injection, schedule: Q04DX003 (ip), vehicle: water",100 % of control
same,T/C,"dose: 400.0 mg/kg/injection, schedule: Q01DX001 (ip), vehicle: saline with Tween-80",100 % of control
same,T/C,"dose: 400.0 mg/kg/injection, schedule: Q04DX003 (ip), vehicle: water",104 % of control
CCCCN(CCCC)CCCNc1c2c(nc3ccccc13)CCCC2,T/C,"dose: 5.0 mg/kg/injection, schedule: Q01DX001 (ip), vehicle: saline",95 % of control
same,T/C,"dose: 10.0 mg/kg/injection, schedule: Q01DX001 (ip), vehicle: saline",95 % of control
same,T/C,"dose: 20.0 mg/kg/injection, schedule: Q01DX001 (ip), vehicle: saline",93 % of control
same,T/C,"dose: 40.0 mg/kg/injection, schedule: Q01DX001 (ip), vehicle: saline",89 % of control
same,T/C,"dose: 50.0 mg/kg/injection, schedule: Q01DX001 (ip), vehicle: saline",91 % of control
same,T/C,"dose: 80.0 mg/kg/injection, schedule: Q01DX001 (ip), vehicle: saline",93 % of control
Oc1cc2c(cc1O)CN1CCc3cc(O)c(O)cc3C1C2 (stereo not drawn),T/C,[1],103 % of control
same,T/C,[2],105 % of control
same,T/C,[3],93 % of control
Cc1cc(N(C)C)c([N+](=O)[O-])cc1C=O,T/C,[4],98 % of control
same,T/C,[5],100 % of control
same,T/C,[6],96 % of control
same,T/C,[7],94 % of control
same,T/C,"dose: 400.0 mg/kg/injection, schedule: Q01DX009 (ip), vehicle: Klucel (hydroxypropylcellulose) (HPC)",96 % of control
same,T/C,[8],94 % of control
COc1cc(NC(=O)Nc2ccccc2Cl)c(OC)cc1Cl,T/C,"dose: 100.0 mg/kg/injection, schedule: Q04DX002 (ip), vehicle: saline with Tween-80",93 % of control
CC1(C)CC(=O)c2c(cc3c(c2O)C(=O)CC(C)(C)O3)O1,T/C,[9],94 % of control
same,T/C,"dose: 100.0 mg/kg/injection, schedule: Q04DX003 (ip), vehicle: saline",100 % of control
same,T/C,[10],94 % of control
same,T/C,"dose: 200.0 mg/kg/injection, schedule: Q04DX003 (ip), vehicle: saline",94 % of control
same,T/C,"dose: 400.0 mg/kg/injection, schedule: Q01DX009 (ip), vehicle: saline",95 % of control
same,T/C,"dose: 400.0 mg/kg/injection, schedule: Q04DX003 (ip), vehicle: saline",106 % of control
Cn1c(=O)c2c(nc(C3CC4C5CCC(C5)C4C3)n2C)n(C)c1=O (stereo not drawn),T/C,"dose: 100.0 mg/kg/injection, schedule: Q01DX001 (ip), vehicle: carboxymethylcellulose (CMC)",103 % of control
same,T/C,"dose: 200.0 mg/kg/injection, schedule: Q01DX001 (ip), vehicle: carboxymethylcellulose (CMC)",95 % of control
same,T/C,"dose: 400.0 mg/kg/injection, schedule: Q01DX001 (ip), vehicle: carboxymethylcellulose (CMC)",95 % of control
COc1nc2ccccc2c2ccccc12,T/C,[11],105 % of control
same,T/C,[12],102 % of control
same,T/C,[13],107 % of control
Cc1cccc(CN2CCN(C(c3ccccc3)c3ccc(Cl)cc3)CC2)c1 (stereo not drawn),T/C,"dose: 25.0 mg/kg/injection, schedule: Q01DX009 (ip), vehicle: Klucel (hydroxypropylcellulose) (HPC)",100 % of control
same,T/C,"dose: 25.0 mg/kg/injection, schedule: Q04DX003 (ip), vehicle: Klucel (hydroxypropylcellulose) (HPC)",100 % of control
same,T/C,"dose: 50.0 mg/kg/injection, schedule: Q01DX009 (ip), vehicle: Klucel (hydroxypropylcellulose) (HPC)",100 % of control
same,T/C,"dose: 50.0 mg/kg/injection, schedule: Q04DX003 (ip), vehicle: Klucel (hydroxypropylcellulose) (HPC)",110 % of control
same,T/C,[4],94 % of control
same,T/C,[5],105 % of control
same,T/C,[6],87 % of control
same,T/C,[7],118 % of control
same,T/C,[8],89 % of control
COC1=C(N)C(=O)c2ncccc2C1=O,T/C,"dose: 4.0 mg/kg/injection, schedule: Q01DX009 (ip), vehicle: acetone",105 % of control
same,T/C,"dose: 8.0 mg/kg/injection, schedule: Q01DX009 (ip), vehicle: acetone",105 % of control
same,T/C,"dose: 16.0 mg/kg/injection, schedule: Q01DX009 (ip), vehicle: acetone",102 % of control
CS(=O)(=O)OCC1(Br)CC1(c1ccccc1)c1ccccc1 (stereo not drawn),T/C,[11],95 % of control
same,T/C,[12],95 % of control
same,T/C,[13],90 % of control
O=C1CC(c2ccc(OCN(CCCl)CCCl)cc2)CC(=O)C1CN(CCCl)CCCl (stereo not drawn),T/C,"dose: 0.2 mg/kg/injection, schedule: Q01DX009 (ip), vehicle: carboxymethylcellulose (CMC)",95 % of control
same,T/C,"dose: 0.37 mg/kg/injection, schedule: Q01DX009 (ip), vehicle: saline",122 % of control
same,T/C,"dose: 0.39 mg/kg/injection, schedule: Q01DX009 (ip), vehicle: carboxymethylcellulose (CMC)",102 % of control
same,T/C,"dose: 0.5 mg/kg/injection, schedule: Q01DX009 (ip), vehicle: carboxymethylcellulose (CMC)",101 % of control
same,T/C,"dose: 0.9 mg/kg/injection, schedule: Q01DX009 (ip), vehicle: carboxymethylcellulose (CMC)",107 % of control
same,T/C,"dose: 1.0 mg/kg/injection, schedule: Q01DX009 (ip), vehicle: carboxymethylcellulose (CMC)",104 % of control
same,T/C,"dose: 1.4 mg/kg/injection, schedule: Q01DX009 (ip), vehicle: carboxymethylcellulose (CMC)",87 % of control
same,T/C,"dose: 2.0 mg/kg/injection, schedule: Q01DX001 (ip), vehicle: saline",193 % of control
same,T/C,"dose: 2.0 mg/kg/injection, schedule: Q01DX009 (ip), vehicle: carboxymethylcellulose (CMC)",114 % of control
same,T/C,"dose: 3.0 mg/kg/injection, schedule: Q01DX009 (ip), vehicle: saline",106 % of control and 90 % of control
same,T/C,"dose: 4.0 mg/kg/injection, schedule: Q01DX001 (ip), vehicle: saline",104 % of control and 109 % of control
same,T/C,"dose: 6.0 mg/kg/injection, schedule: Q04DX003 (ip), vehicle: saline",123 % of control
same,T/C,"dose: 6.6 mg/kg/injection, schedule: Q01DX009 (ip), vehicle: carboxymethylcellulose (CMC)",157 % of control
same,T/C,"dose: 7.5 mg/kg/injection, schedule: Q01DX001 (ip), vehicle: saline",122 % of control
same,T/C,"dose: 8.58 mg/kg/injection, schedule: Q01DX001 (ip), vehicle: carboxymethylcellulose (CMC)",124 % of control
same,T/C,"dose: 10.0 mg/kg/injection, schedule: Q01DX009 (ip), vehicle: carboxymethylcellulose (CMC)",93 % of control
same,T/C,"dose: 13.0 mg/kg/injection, schedule: Q01DX001 (ip), vehicle: carboxymethylcellulose (CMC)",114 % of control
same,T/C,"dose: 19.5 mg/kg/injection, schedule: Q01DX001 (ip), vehicle: carboxymethylcellulose (CMC)",118 % of control
same,T/C,"dose: 0.1 micrograms/kg/injection, schedule: Q01DX001 (ip), vehicle: saline",100 % of control
same,T/C,"dose: 0.2 micrograms/kg/injection, schedule: Q01DX001 (ip), vehicle: saline",102 % of control
same,T/C,"dose: 0.5 micrograms/kg/injection, schedule: Q01DX001 (ip), vehicle: saline",100 % of control
same,T/C,"dose: 1.0 micrograms/kg/injection, schedule: Q01DX001 (ip), vehicle: saline",100 % of control
COC1=C(c2ccccc2)P(=O)(Cc2ccccc2)C2CCCC12 (stereo not drawn),T/C,[5],109 % of control
same,T/C,[7],96 % of control
same,T/C,[8],100 % of control
O=C(/C=C(/c1ccccc1)P(=O)(c1ccccc1)c1ccccc1)c1ccccc1,T/C,[14],86 % of control
same,T/C,[15],89 % of control
same,T/C,"dose: 400.0 mg/kg/injection, schedule: Q01DX009 (ip), vehicle: saline with Tween-80",88 % of control
CCOC(=O)C=C1CCN(C)CC1,T/C,"dose: 50.0 mg/kg/injection, schedule: Q01DX009 (ip), vehicle: saline with Tween-80",104 % of control
same,T/C,[1],97 % of control
same,T/C,[14],98 % of control
same,T/C,[2],103 % of control
same,T/C,[15],97 % of control
same,T/C,[3],101 % of control
O=S(=O)(NO)c1cccc(S(=O)(=O)NO)c1,T/C,[9],97 % of control
same,T/C,[5],89 % of control
same,T/C,[10],87 % of control
same,T/C,[7],95 % of control
same,T/C,[8],92 % of control
